The structures appear in SMILES notation. Values joined by “and” are separate entries in the source; they are usually repeats but may differ in a detail not shown here. Identical values can stand only once. Inconclusive results and toxic doses are left out.

This test deals with P388 leukemia ip, CD2F1 mice, survival T/C. The test is described as follows: NCI In Vivo Anticancer Drug Screen. Data for tumor model P388 Leukemia (intraperitoneal) in CD2F1 (CDF1) mice. The note with it: endpoint: median survival time, higher = longer survival. An outline of the steps: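 Mice carrying the transplanted tumor received test compound or vehicle. Survival was recorded in each group, and the value is the treated-group measurement divided by that of the vehicle-treated control group.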

Where [1] appears, read: dose: 25.0 mg/kg/injection, schedule: Q01DX009 (ip), vehicle: Klucel (hydroxypropylcellulose) (HPC).
The mark [2] stands for this setting: dose: 50.0 mg/kg/injection, schedule: Q01DX009 (ip), vehicle: Klucel (hydroxypropylcellulose) (HPC).
[3] abbreviates: dose: 100.0 mg/kg/injection, schedule: Q01DX009 (ip), vehicle: Klucel (hydroxypropylcellulose) (HPC).
Setting [4] is: dose: 200.0 mg/kg/injection, schedule: Q01DX009 (ip), vehicle: Klucel (hydroxypropylcellulose) (HPC).
[5] abbreviates: dose: 50.0 mg/kg/injection, schedule: Q01DX005 (ip), vehicle: saline with Tween-80.
[6] abbreviates: dose: 100.0 mg/kg/injection, schedule: Q01DX005 (ip), vehicle: saline with Tween-80.
The mark [7] stands for this setting: dose: 200.0 mg/kg/injection, schedule: Q01DX005 (ip), vehicle: saline with Tween-80.
[8] abbreviates: dose: 100.0 mg/kg/injection, schedule: Q01DX005 (ip), vehicle: Klucel (hydroxypropylcellulose) (HPC).
Setting [9] is: dose: 200.0 mg/kg/injection, schedule: Q01DX009 (ip), vehicle: saline with Tween-80.
Where [10] appears, read: dose: 100.0 mg/kg/injection, schedule: Q01DX001 (ip), vehicle: Klucel (hydroxypropylcellulose) (HPC).
[11] abbreviates: dose: 200.0 mg/kg/injection, schedule: Q01DX001 (ip), vehicle: Klucel (hydroxypropylcellulose) (HPC).
[12] abbreviates: dose: 400.0 mg/kg/injection, schedule: Q01DX001 (ip), vehicle: Klucel (hydroxypropylcellulose) (HPC).
Setting [13] is: dose: 60.0 mg/kg/injection, schedule: Q01DX005 (ip), vehicle: saline with Tween-80.
[14] abbreviates: dose: 120.0 mg/kg/injection, schedule: Q01DX005 (ip), vehicle: saline with Tween-80.
Setting [15] is: dose: 240.0 mg/kg/injection, schedule: Q01DX005 (ip), vehicle: saline with Tween-80.

Regarding `CC12CC(=O)CC1(C)CC(=O)C2` (stereo unspecified), the T/C reads like this: (dose: 12.5 mg/kg/injection, schedule: Q01DX009 (ip), vehicle: saline) 92 % of control; (dose: 25.0 mg/kg/injection, schedule: Q01DX009 (ip), vehicle: saline) 92 % of control; (dose: 50.0 mg/kg/injection, schedule: Q01DX009 (ip), vehicle: saline) 86 % of control and 97 % of control.

For the compound `O=c1[nH]c2c(c(=O)[nH]1)CCCCCC2`, the T/C reads like this: under setting [1], 102 % of control and 103 % of control; under setting [2], 99 % of control and 103 % of control; under setting [3], 91 % of control and 97 % of control; under setting [4], 102 % of control and 94 % of control.

As to `CCOC1CSc2ccccc2C(c2ccccc2)=N1` (stereo unspecified), the T/C is 107 % of control (dose: 50.0 mg/kg/injection, schedule: Q01DX005 (ip), vehicle: Klucel + Tween-80); 93 % of control (dose: 100.0 mg/kg/injection, schedule: Q01DX005 (ip), vehicle: Klucel + Tween-80); 89 % of control (dose: 200.0 mg/kg/injection, schedule: Q01DX005 (ip), vehicle: Klucel + Tween-80).

Consider `CN(C)CCCNc1nc2ccccc2c2ccnn12`, for which the T/C reads like this: (dose: 5.5 mg/kg/injection, schedule: Q01DX009 (ip), vehicle: saline) 109 % of control; (dose: 11.0 mg/kg/injection, schedule: Q01DX009 (ip), vehicle: saline) 100 % of control; (dose: 22.0 mg/kg/injection, schedule: Q01DX009 (ip), vehicle: saline) 100 % of control.

On to `Cc1ccc(/C=C/C(=O)C(C)CN(C)C)cc1` (stereo unspecified), for which the T/C is, setting by setting: (dose: 15.0 mg/kg/injection, schedule: Q01DX005 (ip), vehicle: saline) 100 % of control; (dose: 30.0 mg/kg/injection, schedule: Q01DX005 (ip), vehicle: saline) 99 % of control; (dose: 60.0 mg/kg/injection, schedule: Q01DX005 (ip), vehicle: saline) 98 % of control and 100 % of control; (dose: 120.0 mg/kg/injection, schedule: Q01DX005 (ip), vehicle: saline) 100 % of control and 106 % of control and 107 % of control; (dose: 240.0 mg/kg/injection, schedule: Q01DX005 (ip), vehicle: saline) 119 % of control.

Turning to `O=C(NN1C(=O)CS(=O)(=O)C1c1ccc(Cl)cc1Cl)c1ccncc1` (stereo unspecified), the T/C is, setting by setting: under setting [5], 100 % of control; under setting [6], 100 % of control; under setting [7], 102 % of control.

With `CCCC(NC(=O)OCc1ccccc1)C(=O)NC(C)C(=O)O` (stereo unspecified), the T/C by setting is: under setting [1], 104 % of control; under setting [2], 105 % of control; under setting [8], 100 % of control; under setting [3], 106 % of control.

`O=S(=O)(Nc1ccccn1)c1ccc(N(CCCl)CCCl)cc1`: the T/C reads like this: (dose: 100.0 mg/kg/injection, schedule: Q04DX003 (ip), vehicle: saline with Tween-80) 95 % of control; (dose: 200.0 mg/kg/injection, schedule: Q04DX003 (ip), vehicle: saline with Tween-80) 95 % of control.

As for `OCCc1cc[nH]c1`, the T/C (dose: 100.0 mg/kg/injection, schedule: Q01DX009 (ip), vehicle: saline with Tween-80) is 104 % of control; the T/C under setting [9] was 104 % of control; the T/C (dose: 400.0 mg/kg/injection, schedule: Q01DX009 (ip), vehicle: saline with Tween-80) was 95 % of control.

`COc1cc(Cc2nnc(N)nc2N)cc(OC)c1OC`: the T/C under setting [10] was 100 % of control, the T/C under setting [11] was 114 % of control and the T/C under setting [12] was 96 % of control.

As to `O=S(=O)(/N=C1/c2ccccc2/C(=N/S(=O)(=O)c2ccccc2)C2CC=CCC12)c1ccccc1` (stereo unspecified), the T/C by setting is: (dose: 6.25 mg/kg/injection, schedule: Q01DX001 (ip), vehicle: saline with Tween-80) 100 % of control; (dose: 12.5 mg/kg/injection, schedule: Q01DX001 (ip), vehicle: saline with Tween-80) 95 % of control; (dose: 25.0 mg/kg/injection, schedule: Q01DX001 (ip), vehicle: saline with Tween-80) 100 % of control.

Turning to `Cc1ccc(NC(=O)Nc2nccs2)cc1`, the T/C runs as follows: (dose: 12.5 mg/kg/injection, schedule: Q01DX009 (ip), vehicle: distilled water + Tween-80) 101 % of control; (dose: 25.0 mg/kg/injection, schedule: Q01DX009 (ip), vehicle: distilled water + Tween-80) 99 % of control; (dose: 50.0 mg/kg/injection, schedule: Q01DX009 (ip), vehicle: distilled water + Tween-80) 90 % of control; (dose: 100.0 mg/kg/injection, schedule: Q01DX009 (ip), vehicle: distilled water + Tween-80) 99 % of control; (dose: 200.0 mg/kg/injection, schedule: Q01DX009 (ip), vehicle: distilled water + Tween-80) 105 % of control.

For `O=C1C=C2COC(O)CC2CC1` (stereo unspecified), the T/C (dose: 100.0 mg/kg/injection, schedule: Q04DX003 (ip), vehicle: Klucel (hydroxypropylcellulose) (HPC)) was 104 % of control; the T/C (dose: 200.0 mg/kg/injection, schedule: Q04DX003 (ip), vehicle: Klucel (hydroxypropylcellulose) (HPC)) is 105 % of control; the T/C (dose: 400.0 mg/kg/injection, schedule: Q04DX003 (ip), vehicle: Klucel (hydroxypropylcellulose) (HPC)) is 111 % of control.

For `CC1(C)CC(OS(=O)(=O)c2ccc(Br)cc2)CC(C)(C)N1O`, the T/C was 93 % of control under setting [2], 99 % of control under setting [3] and 97 % of control under setting [4].

Consider `CCOC(=O)C1=C(C(=O)c2ccc(OC)cc2)C(c2c(Cl)cccc2Cl)C(C(=O)c2ccc(OC)cc2)=C(C(=O)OCC)N1`, for which the T/C (dose: 30.0 mg/kg/injection, schedule: Q01DX005 (ip), vehicle: saline with Tween-80) was 86 % of control; the T/C under setting [13] is 102 % of control and 93 % of control; the T/C under setting [14] was 94 % of control; the T/C under setting [15] was 93 % of control.

Consider `CC1=NN(C(=O)c2ccc(Cl)cc2)C(=O)C1N=Nc1ccc(S(=O)(=O)Nc2ncccn2)cc1` (stereo unspecified), for which the T/C by setting is: under setting [5], 94 % of control; under setting [6], 97 % of control; under setting [7], 87 % of control.

In the case of `O=C(c1ccccc1Cl)n1c(=O)oc2ccccc21`, the T/C was 99 % of control (dose: 50.0 mg/kg/injection, schedule: Q04DX002 (ip), vehicle: Klucel (hydroxypropylcellulose) (HPC)); 90 % of control (dose: 100.0 mg/kg/injection, schedule: Q04DX002 (ip), vehicle: Klucel (hydroxypropylcellulose) (HPC)); 90 % of control (dose: 200.0 mg/kg/injection, schedule: Q04DX002 (ip), vehicle: Klucel (hydroxypropylcellulose) (HPC)).

Regarding `C[CH2][Sn]1([CH2]C)[O]OC(c2ccccc2)[O]1` (stereo unspecified), the T/C is 155 % of control (dose: 1.56 mg/kg/injection, schedule: Q01DX009 (ip), vehicle: saline with Tween-80) and 173 % of control (dose: 12.5 mg/kg/injection, schedule: Q01DX009 (ip), vehicle: saline with Tween-80).

With `CN(C(=O)OCc1ccccc1)c1ccc(C(=O)NC(CCC(=O)OCc2ccccc2)C(=O)OCc2ccccc2)cc1` (stereo unspecified), the T/C under setting [9] was 94 % of control.

For the compound `Cc1ccc(S(=O)(=O)N2CC3CNC(=O)C(C3)C2)cc1` (stereo unspecified), the T/C was 104 % of control under setting [10], 101 % of control under setting [11] and 107 % of control under setting [12].

For the compound `CCOC1OCCCC1(C)C` (stereo unspecified), the T/C under setting [13] is 100 % of control, the T/C under setting [14] was 105 % of control and the T/C under setting [15] is 112 % of control.

Consider `CC(C)Oc1ccc(C(=O)NS(=O)(=O)c2ccc(N=Nc3c(O)n(-c4ccccc4)n(-c4ccccc4)c3=O)cc2)cc1`, for which the T/C was 94 % of control under setting [2], 91 % of control under setting [3] and 93 % of control under setting [4].

Turning to `CNC(=O)O/N=C(\CN=[N+]=[N-])C(C)(C)C`, the T/C (dose: 0.78 mg/kg/injection, schedule: Q01DX009 (ip), vehicle: saline with Tween-80) was 93 % of control.

`COC(=O)C1=C(C2=C(C(=O)OC)CCC2)CCC1`: the T/C (dose: 100.0 mg/kg/injection, schedule: Q04DX002 (ip), vehicle: saline with Tween-80) was 93 % of control; the T/C (dose: 200.0 mg/kg/injection, schedule: Q04DX002 (ip), vehicle: saline with Tween-80) was 97 % of control; the T/C (dose: 400.0 mg/kg/injection, schedule: Q04DX002 (ip), vehicle: saline with Tween-80) was 100 % of control.

For the compound `CNc1ccccc1C(=O)NCCCN`, the T/C by setting is: (dose: 50.0 mg/kg/injection, schedule: Q01DX005 (ip), vehicle: Klucel (hydroxypropylcellulose) (HPC)) 98 % of control; under setting [8], 95 % of control; (dose: 200.0 mg/kg/injection, schedule: Q01DX005 (ip), vehicle: Klucel (hydroxypropylcellulose) (HPC)) 95 % of control.

Values taken from PubChem BioAssay AID330 (DTP/NCI, 2004).
